The text below walks through data of US20080242661A1, “Novel compounds useful for the treatment of degenerative & inflammatory diseases” (priority 2006, published 2008).

Where only a bound is given, the exact number is not on record here.

In the assay the target is purified PDE1A enzyme (Homo sapiens, UniProt P54750). Put plainly: In vitro PDE1A assay, dose response (Biomol Cyclic Nucleotide Phosphodiesterase Assay Kit, colorimetric). In kind it is biochemical. To be noted: 100 μM cAMP, 45 min at 37° C., 8 points from 20 μM, duplicate. An excerpt: For the dose response and further screening, we used the Cyclic Nucleotide Phosphodiesterase Assay Kit from Biomol, a colorimetric, non-radioactive assay. The basis for the assay is the cleavage of cAMP by PDE1A. The 5′AMP is further cleaved into the nucleoside and phosphate by the enzyme 5′-nucleotidase (catnr KI-307). The phosphate released due to enzymatic cleavage is quantified using BIOMOL GREEN™ reagent (catnr AK-111) in a modified Malachite Green assay 1,2. A PDE1A inhibitor will result in a decrease of the signal.
For the enzymatic reaction a mix of 25 μL with purified PDE1A enzyme, 100 μM cAMP, 5′Nucleotidase and the compound is made in a clear 384-plate. The reaction buffer is Tris 20 mM pH 7.4, 4 μg/ml calmodulin, 3 mM MgCl2, 1.5 mM CaCl2, 0.2 mg/mL BSA and 0.001% Brij-35. After an incubation of 45 minutes at 37° C., the reaction is stopped by the addition of 50 μL BIOMOL GREEN™ reagent. After 30 minutes incubation at room temperature, the readout is performed on the Envision (absorption at 615 nm).
All compounds are tested in duplicate starting from 20 μM followed by a ⅓ serial dilution, 8 points (20 μM-6.67 μM-2.22 μM-740 nM-247 nM-82 nM-27 nM-9 nM) in a final concentration of 1% DMSO. As the positive dose response control compound Vardenafil is used. For the calculation of z′ and PIN values 10 μM Vardenafil is used as positive control (100% inhibition) and 1% DMSO as negative control (0% inhibition).
The following compounds have been or can be prepared according to the synthetic methods described above. For the purpose of Table 2 below, activity of each compound, which can be determined using the PDE1A assay method described in above, is expressed as follows: […]
Turning to `CCCc1nn(C)c2c(=O)[nH]c(N(CCC)CCc3ccc(Cl)cc3)nc12` [Example 75, 5-((4-chlorophenethyl)(propyl)amino)-1-methyl-3-propyl-1H-pyrazolo[4,3-d]pyrimidin-7(6H)-one], the IC50 – broadly, the point on the concentration scale where inhibition reaches its midpoint – was 0.101 to 0.5 µM.
In the case of `CCCc1nn(C)c2c(=O)[nH]c(NCc3ccc(CN4CCOCC4)cc3)nc12` [Example 27, 1-methyl-5-(4-(morpholinomethyl)benzylamino)-3-propyl-1H-pyrazolo[4,3-d]pyrimidin-7(6H)-one] it was 0.101 to 0.5 µM; in that of `CCCc1nn(C)c2c(=O)[nH]c(NCCC(C)C)nc12` [Example 19, 5-(isopentylamino)-1-methyl-3-propyl-1H-pyrazolo[4,3-d]pyrimidin-7(6H)-one], more than 0.5 µM.
In the case of `CCCc1nn(C)c2c(=O)[nH]c(NCc3ccccc3OCCN3CCOCC3)nc12` [Example 50, 1-methyl-5-(2-(2-morpholinoethoxy)benzylamino)-3-propyl-1H-pyrazolo[4,3-d]pyrimidin-7(6H)-one], the IC50 was more than 0.5 µM.
In the case of `CCCc1nn(C)c2c(=O)[nH]c(N(C)Cc3ccccc3Cl)nc12` [Example 24, 5-((2-chlorobenzyl)(methyl)amino)-1-methyl-3-propyl-1H-pyrazolo[4,3-d]pyrimidin-7(6H)-one] it was 0.101 to 0.5 µM; in that of `CN(Cc1ccc(Cl)cc1)c1nc2c(C3CCCC3)nn(C)c2c(=O)[nH]1` [Example 71, 5-((4-chlorobenzyl)(methyl)amino)-3-cyclopentyl-1-methyl-1H-pyrazolo[4,3-d]pyrimidin-7(6H)-one], less than 0.1 µM; in that of `CCCc1nn(C)c2c(=O)[nH]c(N3CCC(C(F)(F)F)CC3)nc12` [Example 60, 1-methyl-3-propyl-5-(4-(trifluoromethyl)piperidin-1-yl)-1H-pyrazolo[4,3-d]pyrimidin-7(6H)-one], more than 0.5 µM.
In the case of `CCC(CC)CN(Cc1cccc(-n2cccn2)c1)c1nc2c(C(C)(C)C)nn(C)c2c(=O)[nH]1` [Example 121] it was less than 0.1 µM; in that of `Cn1nc(C2CCCC2)c2nc(N3CCCCC3)[nH]c(=O)c21` [Example 85, 3-cyclopentyl-1-methyl-5-(piperidin-1-yl)-1H-pyrazolo[4,3-d]pyrimidin-7(6H)-one], more than 0.5 µM.
As for `CN(Cc1cc(-c2ccccc2)nn1C)c1nc2c(C(C)(C)C)nn(C)c2c(=O)[nH]1` [Example 81, 3-tert-butyl-1-methyl-5-(methyl((1-methyl-3-phenyl-1H-pyrazol-5-yl)methyl)amino)-1H-pyrazolo[4,3-d]pyrimidin-7(6H)-one], the figure is less than 0.1 µM; as for `CCCc1nn(C)c2c(=O)[nH]c(N(C)Cc3cccc(-c4ccncc4)c3)nc12` [Example 43, 1-methyl-5-(methyl(3-(pyridin-4-yl)benzyl)amino)-3-propyl-1H-pyrazolo[4,3-d]pyrimidin-7(6H)-one], less than 0.1 µM; as for `CCCc1nn(C)c2c(=O)[nH]c(N(C)Cc3cc4cccnc4s3)nc12` [Example 36, 1-methyl-5-(methyl(thieno[2,3-b]pyridin-2-ylmethyl)amino)-3-propyl-1H-pyrazolo[4,3-d]pyrimidin-7(6H)-one], 0.101 to 0.5 µM.
Turning to `CCCc1nn(C)c2c(=O)[nH]c(N(C)Cc3cc(-c4ccccc4)nn3C)nc12` [Example 38, 1-methyl-5-(methyl((1-methyl-3-phenyl-1H-pyrazol-5-yl)methyl)amino)-3-propyl-1H-pyrazolo[4,3-d]pyrimidin-7(6H)-one], the IC50 was less than 0.1 µM.
Regarding `CCCc1nn(C)c2c(=O)[nH]c(N(C)Cc3csc(-c4ccc(C(F)(F)F)cc4)n3)nc12` [Example 39, 1-methyl-5-(methyl((2-(4-(trifluoromethyl)phenyl)thiazol-4-yl)methyl)amino)-3-propyl-1H-pyrazolo[4,3-d]pyrimidin-7(6H)-one], the IC50 lay in the range of 0.101 to 0.5 µM.
As for `CCCc1nn(C)c2c(=O)[nH]c(N(C)Cc3ccc(N4CCOCC4)cc3)nc12` [Example 61, 1-methyl-5-(methyl(4-morpholinobenzyl)amino)-3-propyl-1H-pyrazolo[4,3-d]pyrimidin-7(6H)-one], the figure is 0.101 to 0.5 µM.
As for `CCCc1nn(C)c2c(=O)[nH]c(NCc3ccc(S(N)(=O)=O)cc3)nc12` [Example 120, 4-((1-methyl-7-oxo-3-propyl-6,7-dihydro-1H-pyrazolo[4,3-d]pyrimidin-5-ylamino)methyl)benzenesulfonamide], the figure is more than 0.5 µM; as for `CCCc1nn(C)c2c(=O)[nH]c(NCc3cccc(F)c3)nc12` [Example 18, 5-(3-fluorobenzylamino)-1-methyl-3-propyl-1H-pyrazolo[4,3-d]pyrimidin-7(6H)-one], more than 0.5 µM.
As for `CCCc1nn(C)c2c(=O)[nH]c(N(C)Cc3cccc4ccccc34)nc12` [Example 58, 1-methyl-5-(methyl(naphthalen-1-ylmethyl)amino)-3-propyl-1H-pyrazolo[4,3-d]pyrimidin-7(6H)-one], the figure is more than 0.5 µM; as for `CCCc1nn(C)c2c(=O)[nH]c(N(C)Cc3cccc(C(F)(F)F)c3)nc12` [Example 5, 1-methyl-5-(methyl(3-(trifluoromethyl)benzyl)amino)-3-propyl-1H-pyrazolo[4,3-d]pyrimidin-7(6H)-one], 0.101 to 0.5 µM.
With `CCCc1nn(C)c2c(=O)[nH]c(N(CCC(C)C)Cc3cccc(-n4cccn4)c3)nc12` [Example 106], the IC50 was less than 0.1 µM.
Compound `CCCc1nn(C)c2c(=O)[nH]c(N(C)CC(C)CC)nc12` (stereo not shown) [Example 112, 1-methyl-5-(methyl(2-methylbutyl)amino)-3-propyl-1H-pyrazolo[4,3-d]pyrimidin-7(6H)-one] returned an IC50 of 0.101 to 0.5 µM.
`CCCc1nn(C)c2c(=O)[nH]c(N(Cc3cccc(-n4cccn4)c3)CC(CC)CC)nc12` [Example 107] registered an IC50 of less than 0.1 µM.
Turning to `CCCc1nn(C)c2c(=O)[nH]c(N(C)Cc3ccnc(N4CCCC4)c3)nc12` [Example 41, 1-methyl-5-(methyl((2-(pyrrolidin-1-yl)pyridin-4-yl)methyl)amino)-3-propyl-1H-pyrazolo[4,3-d]pyrimidin-7(6H)-one], the IC50 is more than 0.5 µM.
As for `CCCc1nn(C)c2c(=O)[nH]c(N(C)Cc3ccc(Cl)c(Cl)c3)nc12` [Example 2, 5-((3,4-dichlorobenzyl)(methyl)amino)-1-methyl-3-propyl-1H-pyrazolo[4,3-d]pyrimidin-7(6H)-one], the figure is less than 0.1 µM; as for `CCCc1nn(C)c2c(=O)[nH]c(NCc3cccc(N4CCOCC4)c3)nc12` [Example 56, 1-methyl-5-(3-morpholinobenzylamino)-3-propyl-1H-pyrazolo[4,3-d]pyrimidin-7(6H)-one], 0.101 to 0.5 µM.
In the case of `CCCc1nn(C)c2c(=O)[nH]c(N(Cc3cccc(N4CCN(C)CC4)c3)CC(C)C)nc12` [Example 102, 5-(isobutyl(3-(4-methylpiperazin-1-yl)benzyl)amino)-1-methyl-3-propyl-1H-pyrazolo[4,3-d]pyrimidin-7(6H)-one] it was less than 0.1 µM.
In the case of `CCCc1nn(C)c2c(=O)[nH]c(NCc3c(C)nn(Cc4ccccc4)c3C)nc12` [Example 91, 5-((1-benzyl-3,5-dimethyl-1H-pyrazol-4-yl)methylamino)-1-methyl-3-propyl-1H-pyrazolo[4,3-d]pyrimidin-7(6H)-one] it was 0.101 to 0.5 µM; in that of `CCCc1nn(C)c2c(=O)[nH]c(NCc3cccc(N4CCCCC4)c3)nc12` [Example 11, 1-methyl-5-(3-(piperidin-1-yl)benzylamino)-3-propyl-1H-pyrazolo[4,3-d]pyrimidin-7(6H)-one], 0.101 to 0.5 µM.
